Reference: patent publication US20240180881A1, “METHODS FOR DECREASING RESISTANCE TO CHEMOTHERAPY” (National Institute of Immunology, priority 2022, published 2024)
Where a name gives a salt, the structure may show the parent alone.

Experiments:
[1] = target: T1, BLM-RAD54 interaction (BLM F2 and N-RAD54 F1) (Homo sapiens, UniProt Q92698); experiment: Renilla luciferase-based protein complementation assay (PCA); format: cell-based; details: disruption of BLM F2 / N-RAD54 F1 interaction, HEK293T cells, 1 nM to 100 μM; read-out: EC50
T1 construct: expressed in transfected cells; host or cells: HEK293T
T1 sequence (Q92698 1-212): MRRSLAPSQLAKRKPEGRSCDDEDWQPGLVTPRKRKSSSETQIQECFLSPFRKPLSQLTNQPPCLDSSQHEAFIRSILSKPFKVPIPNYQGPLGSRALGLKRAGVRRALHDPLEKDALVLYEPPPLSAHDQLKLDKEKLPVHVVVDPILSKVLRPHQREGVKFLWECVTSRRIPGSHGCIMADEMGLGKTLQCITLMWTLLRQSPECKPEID
Description: Specifically, N-RAD54-F1, C-RAD54-F1, BLM-F1 and BLM-F2 were transfected in HEK293T. Forty-eight hours post-transfection, Renilla luciferase-based PCA were carried out with the indicated combination of the expressed proteins. The experiment was repeated three times. Mean±S.D.
Using the Renilla luciferase-based protein complementation assay described earlier, 1280 FDA/EMA approved small molecules present in Prestwick chemical library were screened for their ability to disrupt BLM-RAD54 interaction. Each of the small molecules was incubated with HEK293T cells expressing BLM-F2 and N-RAD54-F1. Compared to cells expressing only BLM-F2 and N-RAD54-F1, the decrease in Renilla luciferase intensity in presence of each small molecule was monitored. Percentage disruption of the interaction between BLM F2 and N-RAD54 F1 was plotted in form of heatmap. The disruption of the BLM-RAD54 interaction was determined by a decrease in the Renilla luciferase activity as compared to control untreated cells.
The percentage disruption of the interaction between BLM F2 and N-RAD54 F1 was plotted as a non-linear regression line. The data was from three independent experiments.
Renilla Luciferase (Rlu) based Protein complementation assay was carried out as described in (Stefan et al., 2007). For preliminary screening of the Prestwick Chemical Library (containing 1280 FDA/EMA approved small molecules), HEK293T cells were seeded in the 6-well plates a day prior to the transfection. Next day the cells were transfected by 2 μg each of pcDNA3.1 N-RAD54 F1, pcDNA3.1 C-RAD54 F1, pcDNA3.1 BLM F1, pcDNA3.1 BLM F2 plasmids (alone or in different combinations) using Lipofectamine 2000 (according to the manufacturer's protocol). 36 hours post-transfection, approximately […] cells were seeded in a 96-well plate and incubated at 37° C. for 2 hour with or without 10 μM of the 1280 small molecules present in the library. 10 μM of Coenleterazine h was added into each well and Rluc activity was monitored for the first 10 seconds in Varioskan Microplate Reader (Thermo Fisher Scientific). The validation screen was performed with 17 small molecules at 100 μM, 10 μM, 1 μM, 100 nM, 10 nM and 1 nM concentrations. The percentage reduction in the protein-protein interaction was then calculated as compared to the control wells (without any small molecule).

[2] = target: T2, RAD54 chromatin remodeling activity (Homo sapiens, UniProt Q92698); experiment: Restriction enzyme accessibility (REA) assay on chromatinized G5E4 array; format: biochemical; details: 180 nM peptide, +ATP
T2 construct: GST RAD54 (1-747) (WT), GST BLM (1-1417) (WT), His RAD54 (1-747) (WT); made in house; host or cells: E. coli BL-21 DE3
T2 sequence (Q92698 1-747): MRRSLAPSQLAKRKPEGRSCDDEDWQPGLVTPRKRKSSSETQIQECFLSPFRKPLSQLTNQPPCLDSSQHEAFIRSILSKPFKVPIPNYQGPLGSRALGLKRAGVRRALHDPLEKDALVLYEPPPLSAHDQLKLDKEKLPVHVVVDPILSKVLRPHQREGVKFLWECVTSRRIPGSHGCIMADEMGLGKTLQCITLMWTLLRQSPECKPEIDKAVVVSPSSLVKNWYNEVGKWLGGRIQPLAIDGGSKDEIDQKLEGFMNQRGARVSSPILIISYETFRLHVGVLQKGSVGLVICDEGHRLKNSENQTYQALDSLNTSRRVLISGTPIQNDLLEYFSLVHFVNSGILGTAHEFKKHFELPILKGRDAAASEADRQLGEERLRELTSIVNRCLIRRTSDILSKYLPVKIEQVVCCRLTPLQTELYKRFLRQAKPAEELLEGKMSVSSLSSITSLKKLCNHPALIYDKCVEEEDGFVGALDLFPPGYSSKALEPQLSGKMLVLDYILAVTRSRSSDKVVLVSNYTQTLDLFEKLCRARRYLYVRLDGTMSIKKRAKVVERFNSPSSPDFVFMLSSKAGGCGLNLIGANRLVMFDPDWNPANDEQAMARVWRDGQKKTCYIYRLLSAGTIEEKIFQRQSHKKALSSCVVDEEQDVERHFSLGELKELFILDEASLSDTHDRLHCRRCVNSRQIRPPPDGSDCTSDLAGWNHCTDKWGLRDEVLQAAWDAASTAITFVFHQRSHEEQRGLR
Text: (§1) The data is from three independent experiments.
as §1

RAD54 = target: T3, RAD54 (Homo sapiens, UniProt Q92698); experiment: ATP binding assay; format: biochemical; details: 180 nM peptide
T3 construct: GST RAD54 (1-747) (WT); made in house; host or cells: E. coli BL-21 DE3
T3 sequence (Q92698 1-747): T2 sequence (Q92698 1-747)
Description: The quantitation of the ATP binding assay was carried out using RAD54 WT, RAD54 WT+BLM_peptide, and RAD54 WT+SCM_peptide. The data is from three independent experiments. Mean±S.D.
(§2) The presence of the disruptors also led to a decrease in the ATP binding to RAD54.
A 20 μl reaction was set up with 120 nM of GST-RAD54 and 180 nM of either BLM_peptide or SCM_peptide or BLM (1-212) using 4 μl of 5×ATP binding assay buffer (100 mM Tris-Cl pH 7.5, 50 mM MgCl2, 10 mM MnCl2, 5 mM DTT) and 5 μCi of [γ^32P]dATP. […] Reactions were incubated at 30° C. for 20 minutes and were stopped with 10% TCA and samples were spotted on P81 phosphocellulose paper followed by washing of paper strips with 75 mM orthophosphoric acid. A minimum of 8 washes were given in 20 hrs of 1 hr each including a 12 hr wash. Following this, strips were dehydrated in ethanol for 10 min followed by liquid scintillation counting. Reactions without the substrate were spotted as control and the same process repeated.

His-RAD54 WT = target: T4, His-RAD54 WT (Homo sapiens, UniProt Q92698); experiment: Tryptophan fluorescence assay; format: binding; details: increasing amount of peptide
T4 construct: made in house; host or cells: E. coli BL-21 DE3
T4 sequence (Q92698 1-747): T2 sequence (Q92698 1-747)
Description: To determine how BLM peptide affects ATP binding and hydrolysis, tryptophan fluorescence assays were carried out using full-length recombinant RAD54 in presence of either BLM_peptide or SCM_peptide (FIG. 2H). Tryptophan fluorescence assays were carried out with RAD54 WT alone or RAD54 WT in presence of the indicated concentrations of either BLM_peptide (upper panel) or SCM_peptide (lower panel). The experiment was repeated three times and one representative experiment has been shown.
RAD54 fluorescence was measured in a fluorometer.
Tryptophan fluorescence measurements were performed on a Fluoromax Spectrofluorimeter (Horiba-Jobin Yvon Fluoromax 4). Recombinant His-RAD54 (500 nM) was excited at 280 nm and the emission intensity monitored at regular intervals from 295 nm to at least 450 nm.

[3] = target: T2, RAD54 chromatin remodeling activity; experiment: REA assay on chromatinized MRP2 array; format: biochemical; details: 180 nM peptide, +ATP
Text: (§3) The data was from three independent experiments.
as §3, §1

RAD54 ATPase activity = target: T5, RAD54 ATPase activity (Homo sapiens, UniProt Q92698); experiment: ATPase assay; format: biochemical; details: peptide gradient 180 nM, 360 nM, 540 nM
T5 construct: made in house; host or cells: E. coli BL-21 DE3
T5 sequence (Q92698 1-747): T2 sequence (Q92698 1-747)
Description: The data is from three independent experiments. Mean±S.D.
as §2
Assay for RAD54 ATPase activity was carried out as per the previously published protocol (Srivastava et al., 2009). His-RAD54 (120 nM) was incubated with the GST-BLM (1-212) or BLM_peptide or SCM_peptide (180 nM). […] 1 μl of the sample was spotted on the polyethyleneimine-coated TLC plate, resolved in 1M Formic Acid and 0.3M LiCl. The products of ATP hydrolysis were then visualized by Phosphoimager scans taken in Typhoon™ laser-scanner platform (Cytiva) and quantitated using the inbuilt software.

Compound: COc1c2occc2c(OC)c2c(=O)cc(C)oc12 [C9, Khellin]
- EC50 [1]: 16.7 ± 1.26 nM

Compound: C[C@]12C=CC(=O)C=C1CC[C@@H]1[C@@H]2C(=O)C[C@@]2(C)[C@H]1CC[C@]2(O)C(=O)CO [C6, Prednisone]
- EC50 [1]: 6.26 ± 2 nM

Compound: COc1ccc(CC2c3cc(OC)c(OC)cc3CC[N+]2(C)CCC(=O)OCCCCCOC(=O)CC[N+]2(C)CCc3cc(OC)c(OC)cc3C2Cc2ccc(OC)c(OC)c2)cc1OC (stereo not shown) [C5, Atracurum besylate]
- EC50 [1]: 5.38 ± 2.17 nM

Compound: BLM_peptide: BLM (181-212) peptide, sequence STAQKSKKGKRNFFKAQLYTTNTVKTDLPPPS
- chromatin remodeling activity of RAD54, fraction uncut [2]: enhance the chromatin remodeling activity of RAD54, to the same extent as BLM (1-212)
- binding of ATP to RAD54 (RAD54): enhanced the binding of ATP to RAD54
- tryptophan fluorescence of RAD54 (His-RAD54 WT): progressively enhanced fluorescence quenching
- RAD54 mediated remodeling activity, fraction uncut [3]: enhanced RAD54 mediated remodeling activity on MRP2 substrate
- ATPase activity of RAD54 (RAD54 ATPase activity): increased the ATPase activity of RAD54

Compound: Oc1c(Cl)cc(Cl)c2cccnc12 [C16, Chloroxine]
- EC50 [1]: 26.4 ± 2.28 nM

Compound: CN(C)C(=N)N=C(N)N [C4, Metformin hydrochloride]
- EC50 [1]: 3.01 ± 0.812 nM
